From patent US20240166660A1, “KRAS G12C INHIBITORS” (BeiGene Switzerland GmbH, priority 2021, published 2024)

Target: KRAS (aa 1-169) G12C, C51S, C80L, C118S (Homo sapiens (Human), UniProt P01116, C118S/C51S/C80L/G12C)
Assay: Biochemical functional assay: SOS1-mediated nucleotide exchange of GDP-loaded KRAS G12C, binding to GST-cRaf RBD, FRET readout
Conditions: 3 hrs pre-incubation with compound at 24° C., SOS1, GTPyS
Experimental: Biochemical Functional Assay
The KRAS (aa 1-169) G12C, C51S, C80L, C118S with a His-tag was expressed, purified and loaded with GDP in house. All protein and substrate solutions were prepared in assay buffer containing 25 mM HEPES pH7.5, 10 mM MgCl2, and 0.01% Triton X-100. Purified GDP-loaded KRAS (aa 1-169) G12C, C51S, C80L, C118S protein was pre-incubated with a serially diluted compound at 24° C. for 3 hrs. Purified SOS1 (aa 564-1049) protein, GTPyS (Sigma) and GST-cRaf RBD (aa 1-149) were then added to each well and incubated at 24° C. for additional 3 hrs. […] Following the incubation, Mab Anti-6HIS-T cryptate (Cisbio) and Mab Anti GST-XL665 (Cisbio) were added and further incubated at 24° C. for 3 hrs. The binding interaction between active GTPyS KRAS G12C and GST-cRaf RBD brings the Tb and XL665 into close proximity enabling an increased FRET signal (Ex337 nm, Em665 nm/620 nm). The inhibition percentage of nucleotide exchange reaction in presence of increasing concentrations of compounds was calculated based on the ratio of fluorescence at 665 nm to that at 620 nm detected on a BMG PHERAstar FSX instrument. The IC50 value of each compound was calculated from fitting the data to the four-parameter logistic model by Dotmatics.

[1] = inhibition of nucleotide exchange

Sequence of KRAS (aa 1-169) G12C, C51S, C80L, C118S (P01116 other isoform, or with tags, fused parts or gaps G12C/C51S/C80L/C118S): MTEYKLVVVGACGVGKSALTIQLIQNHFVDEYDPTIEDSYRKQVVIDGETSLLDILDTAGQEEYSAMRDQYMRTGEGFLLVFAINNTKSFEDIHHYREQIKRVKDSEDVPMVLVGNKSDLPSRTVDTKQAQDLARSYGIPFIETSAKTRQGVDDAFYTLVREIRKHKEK

Structure (SMILES)	IC50 [1]	IC50 (bound in uM)
C=CC(=O)N1CCN(c2nc(OC[C@@H]3C[C@@H](F)CN3C)nc3cc(N4CCCc5ccccc54)c4c(c23)OCCC4)CC1 [Compound B27, 1-(4-(5-(3,4-dihydroquinolin-1(2H)-yl)-8-(((2S,4R)-4-fluoro-1-methylpyrrolidin-2-yl)methoxy)-3,4-dihydro-2H-pyrano[2,3-f]quinazolin-10-yl)piperazin-1-yl)prop-2-en-1-one]	0.321 µM	
C=C(F)C(=O)N1CCN(c2nc(O[C@@H]3CN(C)C[C@H]3OC)nc3cc(-c4cccc5cccc(Cl)c45)c4c(c23)OCCC4)C[C@@H]1CC#N [Compound B55, 2-((S)-4-(5-(8-chloronaphthalen-1-yl)-8-(((3R,4R)-4-methoxy-1-methylpyrrolidin-3-yl)oxy)-3,4-dihydro-2H-pyrano[2,3-f]quinazolin-10-yl)-1-(2-fluoroacryloyl)piperazin-2-yl)acetonitrile]	0.134 µM	
C=C(F)C(=O)N1CCN(c2nc(OC[C@@H]3CCCN3C)nc3cc(-c4ccc(Cl)c5ccccc45)c4c(c23)OCCC4)C[C@@H]1CC#N [Compound B98, 2-((S)-4-(5-(4-chloronaphthalen-1-yl)-8-(((S)-1-methylpyrrolidin-2-yl)methoxy)-3,4-dihydro-2H-pyrano[2,3-f]quinazolin-10-yl)-1-(2-fluoroacryloyl)piperazin-2-yl)acetonitrile]	0.462 µM	
C=CC(=O)N1CCN(c2ncnc3cc(-c4c(O)cccc4F)c4c(c23)OC(C)(C)CC4)CC1 [Compound A2, 1-(4-(5-(2-fluoro-6-hydroxyphenyl)-2,2-dimethyl-3,4-dihydro-2H-pyrano[2,3-f]quinazolin-10-yl)piperazin-1-yl)prop-2-en-1-one]	2.12 µM	
C=CC(=O)N1CCN(c2ncnc3cc(-c4c(C)ccc5[nH]ncc45)c4c(c23)OCCC4)C[C@@H]1CC#N [Compound A10, 2-((2S)-1-acryloyl-4-(5-(5-methyl-1H-indazol-4-yl)-3,4-dihydro-2H-pyrano[2,3-f]quinazolin-10-yl)piperazin-2-yl)acetonitrile]	0.598 µM	
C=CC(=O)N1CCN(c2ncnc3cc(-c4cccc5cccc(Cl)c45)c4c(c23)OCCC4)C[C@@H]1CC#N [Compound A32, (S)-2-(1-acryloyl-4-(5-(8-chloronaphthalen-1-yl)-3,4-dihydro-2H-pyrano[2,3-f]quinazolin-10-yl)piperazin-2-yl)acetonitrile]	0.012 µM	
C=CC(=O)N1CCN(c2ncnc3cc(-c4cccc5ccccc45)c4c(c23)OCCC4)CC1 [Compound A12, 1-(4-(5-(naphthalen-1-yl)-3,4-dihydro-2H-pyrano[2,3-f]quinazolin-10-yl)piperazin-1-yl)prop-2-en-1-one]	1.66 µM	
C=C(F)C(=O)N1CCN(c2nc(OC(C)CN(C)C)nc3cc(-c4cccc5cccc(Cl)c45)c4c(c23)OCCC4)C[C@@H]1CC#N (stereo partly drawn) [Compound B85, 2-((2S)-4-(5-(8-chloronaphthalen-1-yl)-8-((1-(dimethylamino)propan-2-yl)oxy)-3,4-dihydro-2H-pyrano[2,3-f]quinazolin-10-yl)-1-(2-fluoroacryloyl)piperazin-2-yl)acetonitrile]	0.089 µM	
C=CC(=O)N1CCN(c2ncnc3cc(-c4c(F)cccc4F)c4c(c23)OCCC4)C[C@@H]1CC#N [Compound A34, (S)-2-(1-acryloyl-4-(5-(2,6-difluorophenyl)-3,4-dihydro-2H-pyrano[2,3-f]quinazolin-10-yl)piperazin-2-yl)acetonitrile]	2.11 µM	
C=CC(=O)N1CCN(c2ncnc3cc(-c4cccc5ccccc45)c4c(c23)OC(C)(C)CC4)CC1 [Compound A1, 1-(4-(2,2-dimethyl-5-(naphthalen-1-yl)-3,4-dihydro-2H-pyrano[2,3-f]quinazolin-10-yl)piperazin-1-yl)prop-2-en-1-one]	5.5 µM	
C=C(F)C(=O)N1CCN(c2nc(OC[C@@H]3CCCN3C)nc3cc(-c4c(Cl)c(C)cc5[nH]ncc45)c4c(c23)OCCC4)C[C@@H]1CC#N (single isomer, unassigned; atropisomer1) [Compound B12]	0.0046 µM	
C=CC(=O)N1CCN(c2nc(N3CC(N(C)C)C3)nc3cc(-c4ccccc4C)c4c(c23)OCCC4)CC1 [Compound B18, 1-(4-(8-(3-(dimethylamino)azetidin-1-yl)-5-(o-tolyl)-3,4-dihydro-2H-pyrano[2,3-f]quinazolin-10-yl)piperazin-1-yl)prop-2-en-1-one]		> 10 µM
C=C(F)C(=O)N1CCN(c2nc(OC[C@@H]3CCCN3C)nc3cc(-c4cccc5cccc(Cl)c45)c4c(c23)OCCC4)C[C@@H]1CC#N (single isomer, unassigned) [Compound B67]	0.0046 µM	
C=C(F)C(=O)N1CCN(c2nc(OC[C@]3(C)CCCN3C)nc3cc(-c4cccc5cccc(Cl)c45)c4c(c23)OCCC4)C[C@@H]1CC#N [Compound B60, 2-((S)-4-(5-(8-chloronaphthalen-1-yl)-8-(((S)-1,2-dimethylpyrrolidin-2-yl)methoxy)-3,4-dihydro-2H-pyrano[2,3-f]quinazolin-10-yl)-1-(2-fluoroacryloyl)piperazin-2-yl)acetonitrile]	0.252 µM	
C=C(F)C(=O)N1CCN(c2nc(OC[C@@H]3CCCN3C)nc3cc(-c4ccccc4F)c4c(c23)OCCC4)C[C@@H]1CC#N [Compound B31, 2-((S)-1-(2-fluoroacryloyl)-4-(5-(2-fluorophenyl)-8-(((S)-1-methylpyrrolidin-2-yl)methoxy)-3,4-dihydro-2H-pyrano[2,3-f]quinazolin-10-yl)piperazin-2-yl)acetonitrile]	0.984 µM	
C=CC(=O)N1C[C@H](C)N(c2nc(OC[C@@H]3CCCN3C)nc3cc(-c4cccc5cccc(Cl)c45)c4ccoc4c23)C[C@H]1C [Compound B52, 1-((2R,5S)-4-(4-(8-chloronaphthalen-1-yl)-7-(((S)-1-methylpyrrolidin-2-yl)methoxy)furo[2,3-f]quinazolin-9-yl)-2,5-dimethylpiperazin-1-yl)prop-2-en-1-one]	0.654 µM	
C=C(F)C(=O)N1CCN(c2nc(OC[C@@H]3CCCN3C)nc3cc(-c4cccc5cccc(Cl)c45)c4c(c23)OCCC4)C[C@@H]1CC#N (single isomer, unassigned) [Compound B68]	0.177 µM	
C=CC(=O)N1CCN(c2nc(OC[C@@H]3CCCN3C)nc3cc(-c4c(F)cccc4Cl)c4ccoc4c23)CC1 [Compound B57, 1-(4-(4-(2-chloro-6-fluorophenyl)-7-(((S)-1-methylpyrrolidin-2-yl)methoxy)furo[2,3-f]quinazolin-9-yl)piperazin-1-yl)prop-2-en-1-one]	1.02 µM	
C=C(F)C(=O)N1CCN(c2nc(OC[C@@H]3CCCN3C)nc3cc(-c4cccc5ccc(Cl)cc45)c4c(c23)OCCC4)C[C@@H]1CC#N [Compound B70, 2-((S)-4-(5-(7-chloronaphthalen-1-yl)-8-(((S)-1-methylpyrrolidin-2-yl)methoxy)-3,4-dihydro-2H-pyrano[2,3-f]quinazolin-10-yl)-1-(2-fluoroacryloyl)piperazin-2-yl)acetonitrile]	0.035 µM	
C=C(F)C(=O)N1CCN(c2nc(OC[C@@H]3CCCN3C)nc3cc(-c4c(F)cccc4F)c4ccoc4c23)C[C@@H]1CC#N [Compound B38, 2-((S)-4-(4-(2,6-difluorophenyl)-7-(((S)-1-methylpyrrolidin-2-yl)methoxy)furo[2,3-f]quinazolin-9-yl)-1-(2-fluoroacryloyl)piperazin-2-yl)acetonitrile]	0.913 µM	
C=CC(=O)N1CCN(c2ncnc3cc(-c4ccc(O)c5ccccc45)c4c(c23)OCCC4)C[C@@H]1CC#N [Compound A21, (S)-2-(1-acryloyl-4-(5-(4-hydroxynaphthalen-1-yl)-3,4-dihydro-2H-pyrano[2,3-f]quinazolin-10-yl)piperazin-2-yl)acetonitrile]	0.005 µM	
C=CC(=O)N1CCN(c2nc(OC[C@@H]3CCCN3C)nc3cc(-c4c(Cl)c(C)cc5[nH]ncc45)c4c(c23)OCCC4)CC1 [Compound B6, 1-(4-(5-(5-chloro-6-methyl-1H-indazol-4-yl)-8-(((S)-1-methylpyrrolidin-2-yl)methoxy)-3,4-dihydro-2H-pyrano[2,3-f]quinazolin-10-yl)piperazin-1-yl)prop-2-en-1-one]	0.034 µM	
C=CC(=O)N1CCN(c2nc(OC[C@@H]3CCCN3C)nc3cc(-c4c(Cl)cccc4Cl)c4ccoc4c23)CC1 [Compound B59, (S)-1-(4-(4-(2,6-dichlorophenyl)-7-((1-methylpyrrolidin-2-yl)methoxy)furo[2,3-f]quinazolin-9-yl)piperazin-1-yl)prop-2-en-1-one]	0.745 µM	
C=CC(=O)N1CCN(c2nc(OC[C@@H]3CCCN3C)nc3cc(-c4c(Cl)c(C)cc5[nH]ncc45)c4ccoc4c23)CC1 [Compound B34, 1-(4-(4-(5-chloro-6-methyl-1H-indazol-4-yl)-7-(((S)-1-methylpyrrolidin-2-yl)methoxy)furo[2,3-f]quinazolin-9-yl)piperazin-1-yl)prop-2-en-1-one]	0.065 µM	
C=C(F)C(=O)N1CCN(c2ncnc3cc(-c4c(C)cccc4F)c4c(c23)OCCC4)C[C@@H]1CC#N [Compound A30, 2-((2S)-4-(5-(2-fluoro-6-methylphenyl)-3,4-dihydro-2H-pyrano[2,3-f]quinazolin-10-yl)-1-(2-fluoroacryloyl)piperazin-2-yl)acetonitrile]	1.96 µM	
